The subject of test [1] is Nephotettix cincticeps. The experiment in a line: Insecticidal activity against 1 to 3 day-old adult Nephotettix cincticeps (green rice leafhopper) infested in compound-treated rice seedlings assessed as mortality measured after 3 days. The class given is functional.
For test [2], the system named is Laodelphax striatellus. As to the kind of experiment: Insecticidal activity against 1 to 3 day-old adult Laodelphax striatella (small brown planthopper) infested compound-treated rice seedlings assessed as mortality measured after 3 days. The class given is functional.

For the compound `CN/C(=C\[N+](=O)[O-])NCC1CCOC1` (configuration not stated), the LC70 in test [1] and in test [2] was 0.1 ppm in each case.

For `CN/C(=N\[N+](=O)[O-])NCC1CCOC1C` (configuration not stated), the LC70 in test [1] and in test [2] was above 1000 ppm in each case.

Take `CN/C(=N\[N+](=O)[O-])NCC1(C)CCOC1` (configuration not stated): the LC70 in test [1] and in test [2] was above 1000 ppm in each case.

`O=[N+]([O-])/C=C1\NCCCN1CC1CCOC1` (configuration not stated): the LC70 in test [1] stood at 0.1 ppm; in test [2], 1 ppm.

As for `O=[N+]([O-])/N=C1\NCCCN1CC1CCOC1` (configuration not stated), the LC70 in test [1] is recorded as 0.1 ppm; in test [2], 1 ppm.

On to `CC1(C)CC(CN2CCCN/C2=N\[N+](=O)[O-])CO1` (configuration not stated), for which the LC70 came to 1 ppm in test [1] and 10 ppm in test [2].

Turning to `CN/C(=N\[N+](=O)[O-])NCC1COC(C)(C)C1` (configuration not stated), the LC70 came to 1 ppm in test [1] and 100 ppm in test [2].

`CN/C(=C\[N+](=O)[O-])NCC1COC(C)(C)C1` (configuration not stated): the LC70 is on record as 1 ppm in test [1] and 10 ppm in test [2].

For the compound `CC1(C)CC(CN2CCCN/C2=C\[N+](=O)[O-])CO1` (configuration not stated), the LC70 in test [1] and in test [2] was 1 ppm in each case.

As for `CN/C(=N\[N+](=O)[O-])NCC1COC(C)C1` (mixture of isomers), the LC70 in test [1] is given as 1 ppm; in test [2] it was 10 ppm.

Turning to `CCC1COCC1CN/C(=N/[N+](=O)[O-])NC` (mixture of isomers), the values for the LC70 in test [1] and in test [2] were 100 ppm and above 1000 ppm, respectively.

On to `CN/C(=N\[N+](=O)[O-])NCC1COCC1C` (mixture of isomers), for which the LC70 came out at 1 ppm in test [1] and 10 ppm in test [2].

As to `CCC1COCC1CN/C(=C/[N+](=O)[O-])NC` (mixture of isomers), the LC70 in test [1] is 100 ppm; in test [2], above 1000 ppm.

Regarding `CC1COCC1CN1CCCN/C1=N\[N+](=O)[O-]` (mixture of isomers), the values for the LC70 in test [1] and in test [2] were 0.1 ppm and 10 ppm, respectively.

For the compound `CC1CC(CN2CCCN/C2=N\[N+](=O)[O-])CO1` (mixture of isomers), the LC70 in test [1] was 0.1 ppm; in test [2] it was 1 ppm.

On to `CN/C(=N\[N+](=O)[O-])NCC1CCOC1OC` (mixture of isomers), for which the LC70 in test [1] and in test [2] was above 1000 ppm in each case.

For the compound `CN/C(=N\[N+](=O)[O-])NCC1(C)COCC1C` (mixture of isomers), the LC70 in test [1] and in test [2] was above 1000 ppm each time.

Turning to `CN/C(=N\[N+](=O)[O-])NCC1COC(c2ccccc2)C1` (mixture of isomers), the LC70 in test [1] and in test [2] was above 1000 ppm each time.

Consider `CN/C(=C\[N+](=O)[O-])NCC1CCOC1C` (mixture of isomers), for which the LC70 in test [1] and in test [2] was above 1000 ppm in each case.

As for `CN/C(=C\[N+](=O)[O-])NCC1CCOC1OC` (mixture of isomers), the LC70 in test [1] and in test [2] was above 1000 ppm in each case.

For `CN/C(=C\[N+](=O)[O-])NCC1COCC1C` (mixture of isomers), the LC70 in test [1] and in test [2] was 1 ppm throughout.

Turning to `CN/C(=C\[N+](=O)[O-])NCC1COC(C)C1` (mixture of isomers), the LC70 in test [1] is 1 ppm; in test [2], 10 ppm.

With `CC1COCC1CN1CCCN/C1=C\[N+](=O)[O-]` (mixture of isomers), the values for the LC70 in test [1] and in test [2] were 0.1 ppm and 1 ppm, respectively.

In the case of `CCC1COCC1CN1CCCN/C1=C\[N+](=O)[O-]` (mixture of isomers), the LC70 is recorded as above 1000 ppm in test [1] and 100 ppm in test [2].

For the compound `CC1CC(CN2CCCN/C2=C\[N+](=O)[O-])CO1` (mixture of isomers), the LC70 in test [1] and in test [2] was 1 ppm throughout.

As to `CN/C(=N/CC1CCOC1)N[N+](=O)[O-]` (configuration not stated) [DINOTEFURAN], the LC70 in test [1] and in test [2] was 0.1 ppm each time.

Source of the values: ChEMBL document CHEMBL3044941, “Synthesis and Structure-Activity Relationships of Dinotefuran Derivatives: Modification in the Tetrahydro-3-furylmethyl Part” (2004).
